Measurements from publication PMC5551549 (Endocrinology, 2017).
Entries after “also recorded” stand apart in the source; their conditions may differ.

Experiments:
[1] = test system: CHO-K1-GCGR cells; experiment: Ca^2+ response to ATP (control), CHO-K1-GCGR cells; type: cell-based, Chinese hamster; details: mean ± SEM; P = 0.77 vs RAMP2-expressing cells
Description: (§1) Cells, plated overnight onto 96-well plates at 50,000 cells/well, were incubated in 75 µL Ca NW^PLUS working reagent for 1 hour at 37°C. […] Fluorescence signal was measured from 5 seconds before to 30 seconds after injection of agonist. The Ca^2+ response was expressed as a percentage of the adenosine triphosphate response (1 µM).

[2] = test system: CHO-K1-GCGR cells + RAMP2; experiment: Ca^2+ response to ATP (control), RAMP2-expressing CHO-K1-GCGR cells; type: cell-based, Chinese hamster; details: mean ± SEM; P = 0.77 vs control cells
Description: as §1

[3] = test system: CHO-K1-GCGR cells; experiment: cAMP response to forskolin (control), CHO-K1-GCGR cells; type: cell-based, Chinese hamster; details: mean ± SEM; P = 0.20 vs RAMP2-expressing cells
Description: (§2) CHO-K1 cells overexpressing the human GCGR (with or without RAMP2), plated onto 48-well plates at 40,000 cells/well, were incubated in serum-free media for 1 hour. Peptides were prepared in serum-free DMEM containing 100 µM of IBMX (3-isobutyl-1-methylxanthine; Sigma-Aldrich, United Kingdom). The cells were incubated for 30 minutes with the test peptide, after which media were replaced with 110 µL lysis buffer (0.1M HCl with 0.5% Triton-X). The lysate was assayed by using a direct cyclic adenosine monophosphate ELISA kit (Enzo Life Sciences, United Kingdom), as described in the assay manual. The cyclic adenosine monophosphate (cAMP) response was corrected for well protein levels (Bradford reagent; Sigma-Aldrich) and expressed as a percentage of response to 10 µM forskolin.

[4] = test system: CHO-K1-GCGR cells + RAMP2; experiment: cAMP response to forskolin (control), RAMP2-expressing CHO-K1-GCGR cells; type: cell-based, Chinese hamster; details: mean ± SEM; P = 0.20 vs control cells
Description: as §2

[5] = test system: human GCGR coexpressed with RAMP2; experiment: PathHunter β-arrestin recruitment, CHO-K1-βArr-GCGR cells with RAMP2; type: cell-based; details: 90 min, 37°C; PathHunter β-galactosidase complementation; minimum of four separate experiments; Emax P < 0.0001 with vs without RAMP2
Description: PathHunter CHO-K1 GCGR β-Arrestin GPCR assay (DiscoveRx Corporation Ltd.) was used to determine the effect of RAMP2 on the potency of GCGR ligands for recruitment of β-arrestin-1 to the GCGR. The CHO-K1-βArr-GCGR cells are engineered to detect the interaction of β-arrestin with the activated GCGR using β-galactosidase fragment complementation. CHO-K1-βArr-GCGR cells were stably transfected with or without RAMP2, as described previously. […] Fifty-five microliters of the PathHunter detection reagents was added to each well, and the microplate was incubated at room temperature for 60 minutes.

## Nc1ncnc2c1ncn2[C@@H]1O[C@H](COP(=O)(O)OP(=O)(O)OP(=O)(O)O)[C@@H](O)[C@H]1O [ATP, adenosine triphosphate]
[1]
  Ca^2+ response to ATP, control cells: 1.81 ± 0.08 relative fluorescence unit fold increase from baseline
[2]
  Ca^2+ response to ATP, RAMP2-expressing cells: 1.84 ± 0.10 relative fluorescence unit fold increase from baseline

## C=C[C@@]1(C)CC(=O)[C@]2(O)[C@@]3(C)[C@@H](O)CCC(C)(C)[C@@H]3[C@H](O)[C@H](OC(C)=O)[C@@]2(C)O1 [forskolin]
[3]
  cAMP response to forskolin, control cells: 0.136 ± 0.01 relative absorbance units
[4]
  cAMP response to forskolin, RAMP2-expressing cells: 0.140 ± 0.01 relative absorbance units

## CC[C@H](C)[C@H](NC(=O)[C@H](Cc1ccccc1)NC(=O)[C@H](CCC(=O)O)NC(=O)[C@H](CCCCN)NC(=O)[C@H](C)NC(=O)[C@H](C)NC(=O)[C@H](CCC(N)=O)NC(=O)CNC(=O)[C@H](CCC(=O)O)NC(=O)[C@H](CC(C)C)NC(=O)[C@H](Cc1ccc(O)cc1)NC(=O)[C@H](CO)NC(=O)[C@H](CO)NC(=O)[C@@H](NC(=O)[C@H](CC(=O)O)NC(=O)[C@H](CO)NC(=O)[C@@H](NC(=O)[C@H](Cc1ccccc1)NC(=O)[C@@H](NC(=O)CNC(=O)[C@H](CCC(=O)O)NC(=O)[C@H](C)NC(=O)[C@@H](N)Cc1c[nH]cn1)[C@@H](C)O)[C@@H](C)O)C(C)C)C(=O)N[C@@H](C)C(=O)N[C@@H](Cc1c[nH]c2ccccc12)C(=O)N[C@@H](CC(C)C)C(=O)N[C@H](C(=O)N[C@@H](CCCCN)C(=O)NCC(=O)N[C@@H](CCCNC(=N)N)C(N)=O)C(C)C [GLP-1]
[5]
  β-arrestin recruitment in cells expressing both GCGR and RAMP2: did not occur; also recorded: completely abolished
